# Article PMC4915154, “Development of background-free tame fluorescent probes for intracellular live cell imaging” (Nature Communications, 2016)
# Experiments:
# [1] = test system: U-2 OS and CHO cell lines; assay: Cellular retention and efflux characteristics test (before/after washing imaging, retaining ratio RR); assay type: cell-based, human (U-2 OS), Chinese hamster (CHO); details: 30 min; for Experimentally observed group: U-2 OS and CHO cell lines, probe 1 μM, imaged before and 10 min after washing; for Cellular retention after washing (probe signal): CHO and U-2 OS cells, 1 uM probe
# Excerpt: To expedite an efficient strategy for ‘tame' probe development, we set up a system to predict cellular properties of fluorescent probes via phenotypic high-throughput screening (HTS), cheminformatics and statistical analysis (Fig. 1a). As the first step, we conducted phenotypic HTS to investigate cell permeability and nonspecific binding properties of the probes in a training set. We tested about 2,085 probes consisted of a wide range photophysical properties from numerous fluorophore cores such as BODIPY[12][13][14][15], xanthone, rosamine, cyanine[19][20] and ACEMAN[21]. Their cellular influx and efflux profiles were examined in two types of mammalian cells, U-2 OS and CHO. These cell lines were chosen due to their flexibility in genetic manipulation, adaptability to various culture conditions and versatility in wide biomedical research such as gene expression, toxicity screening, recombinant protein and live cell imaging. Each of the probes was added into live cells and cell image was taken after 30 min by ImageXpress Micro cellular imaging system (Molecular Device). The cells were then washed with fresh growth media, and after another 10 min, a second image was taken to check the completeness of probe washing out of the cell. The first and second imaging facilitated influx (before washing, BW) and efflux (after washing, AW) measurements, respectively (Supplementary Fig. 1).
# To measure the influx and efflux of the probes, an automated quantitative intensity-based image analysis was then performed by Multi-Wavelength Cell Scoring analysis using MetaXpress High Content Image software. Retaining ratio (RR, per cent ratio of the average intensity of AW image over BW image) was computed to classify probes into the three phenotypic groups. For each cell in the image, the nuclei and cell region were segmented to provide approximate cellular boundaries. Fluorescence intensity was then quantified on a cell-by-cell basis by the following steps: (i) selecting the image of interest, (2) specifying the width of the stained cell area, (3) adjusting the intensity above local background for detection specificity, and (4) calculating fluorescence intensity with specified reporting parameters. Average fluorescence intensity for each BW and AW images was calculated for each probes and cell lines, and was then used as input in RR calculation (Supplementary Figs 2 and 3).
# U-2 OS, a human osteosarcoma cell line, and CHO, a Chinese hamster ovary cell line, (from ATCC) were cultured in Dulbecco's modified eagle's medium (DMEM) (Invitrogen, CA, USA) supplemented with fetal bovine serum (FBS) (10%) and penicillin–streptomycin (1%). Materials used in the cell culture were purchased from Invitrogen. U-2 OS and CHO cells were seeded onto 96-well plate in growth media at 37 °C in the presence of 5% CO2 and were then allowed to attach and grow to 70–80% confluence. Library probes were dissolved in dimethylsulfoxide (DMSO) to make the 1 mM solution, and stored in −20 °C. Before HTS experiment, the growth media was aspirated and replaced by 200 μl fresh growth media containing probes in final concentration of 1 μM and nuclei dye Hoechst 33342. Plates were incubated for 30 min at 37 °C then were imaged using ImageXpress Micro cellular imaging system (Molecular Device) with × 10 objective lens. Immediately after image acquisition, the cells were washed with fresh growth media, and transferred back to a 37 °C cell incubator for further incubation. After 10 min, cells were again imaged (AW image). The first imaging step allowed influx measurement of BW image , while the second imaging step allowed out-flux measurement of AW image. Images of two regions per well were acquired with DAPI, FITC, TRITC or Texas Red filter sets according to probes' excitation and emission wavelength. Experiment was performed in duplicate. Cellular retention and efflux characteristics test for other synthesized probes were also done by using the same protocol. […]
# [2] = Spectroscopic properties (absorbance, emission, extinction coefficient, quantum yield); assay type: physicochemical; details: 10 μM in DMSO
# Procedure: Supplementary Table 9. Spectrocopic properties and purity table for CO-1 and CO-1H.
# Calculated mass, experimental mass, absorbance maximum (λabs), fluorescent emission maximum (λem), extinction coefficient (ε), quantum yield (Φ), and purity. mass m/z λabs λem ε Purity […]
# Absorbance and fluorescence emission data were recorded by a Synergy 4, Biotek Inc. fluorescent plate reader at 10 μM concentration in DMSO in 96-well plates. HRMS a: found mass (M-H), b: tetramethyl BODIPY was used as standard, c: purity data was calculated on the basis of the integration in HPLC trace at 254 nm.
# [3] = test system: azide-tagged intracellular organelles in U-2 OS cells; assay: Live cell SPAAC labelling of azide-tagged organelles (mitochondria, lysosome, golgi apparatus); assay type: cell-based, human; details: U-2 OS cells pre-treated with TPP-Az, Sphingo-Az or Morph-Az, 2 μM probe, 1 h, 37 °C
# Excerpt: Next, we investigated intracellular imaging in live cells using CO-1. We synthesized various azide-bearing reporters: TPP-Az, a triphenylphosphonium analogue which accumulates in mitochondria; Sphingo-Az, a ceramide analogue to target golgi apparatus; and Morph-Az, an azide derivative with morpholine moiety as a directing group for lysosome (Fig. 3a). SPAAC covalent labelling reactions between CO-1 and all azide reporters in vitro were clean and rapid. We anticipated that the cell permeable CO-1 is capable of labelling any azide reporters effectively, regardless the reporters' cellular localization. We added 2 μM CO-1 to the growth media of U-2 OS cells pre-treated with TPP-Az, Sphingo-Az or Morph-Az separately. Confocal fluorescence images were then taken after probe washing.
# Figure 3 Live cell imaging with CO-1. (a) Chemical structures and schematic illustration of the covalent labelling of azide-tagged organelles using CO-1 in live cells. (b) Fluorescence imaging of mitochondria, lysosome and golgi apparatus in U-2 OS cells labelled with CO-1. Cells pre-treated with TPP-Az, Morph-Az or Sphingo-Az were incubated with 2 μM CO-1 in growth media at 37 °C for 1 h and followed by counterstaining with organelle trackers. Scale bar, 15 μm. (c) Fluorescence imaging of histone H2B in live U-2 OS. U-2 OS cells were co-transfected with plasmids pIre-Azi3 and pmH2B-6-mKate2-16tag to incorporate UAA Azi into H2B-mKate2 at site 16. After Azi incorporation, cells were labelled with 10 μM CO-1 for 90 min at 37 °C. Cells were then washed and imaged. The mKate2 (red) signals were detected in cell nuclei only, and colocalized with the CO-1 (green) signals in the merged image. Scale bar, 5 μm.
# U-2 OS cells were treated with 5 μM TPP-Az, in culture media for 2 h at 37 °C. After incubation, cells were washed and added with 2 μM CO-1 probe. Labelling was allowed to proceed for 1 h at 37 °C in the incubator chamber. […]
# Fluorescence imaging of mitochondria, lysosome and golgi apparatus in U-2 OS cells labeled with CO-1H. […] In contrast to CO-1, high fluorescence background from CO-1H was observed. […]
SMILES,Experimentally observed group [1],also measured
Cc1cc(/C=C/c2ccc(B(O)O)cc2)n2c1C(c1ccc(N)cc1)=C1C=CC=[N+]1[B-]2(F)F [BOR-1H],H-group (those with RR >5% were classified into H-group),–
Cc1cc(/C=C/c2ccc(B(O)O)cc2)n2c1C(CCC(=O)N1CCOCC1)=C1C=CC(CCC(=O)N(C)C)=[N+]1[B-]2(F)F [BOR-1],"L-group (Probes (FI(BW) >200) with rapid efflux were observed to have a RR of <5%, and thus were classified into L-group)",Cellular retention after washing (probe signal) [1]: significantly decreased after washing
COC(=O)c1ccc(C2=C3C(C)=CC(C)=[N+]3[B-](F)(F)n3c(/C=C/c4ccc(B(O)O)cc4)cc(C)c32)cc1 [BOR-2H],H-group (those with RR >5% were classified into H-group),–
Cc1cc(C)n2c1C(CCC(=O)N1CCOCC1)=C1C=CC(CCC(=O)NCCC(=O)N3Cc4ccccc4C#Cc4ccccc43)=[N+]1[B-]2(F)F [CO-1H],H-group (those with RR >5% were classified into H-group),ε [2]: 83333 M⁻¹ cm⁻¹; λabs [2]: 500 nm; λem [2]: 520 nm; QY (Φ) ([2]; tetramethyl BODIPY as standard): 0.83; Cellular retention after washing (probe signal) [1]: retained inside the cells; Fluorescence background after washing [3]: high-fluorescence background
NCCNC1=C2C=CC=[N+]2[B-](F)(F)n2cccc21 [CS-2],"L-group (Probes (FI(BW) >200) with rapid efflux were observed to have a RR of <5%, and thus were classified into L-group)",–
CCc1c(C)c2n(c1C)[B-](F)(F)[N+]1=CC=CC1=C2SC [CS-3],"L-group (Probes (FI(BW) >200) with rapid efflux were observed to have a RR of <5%, and thus were classified into L-group)",–
CCc1c(C)c2n(c1C)[B-](F)(F)[N+]1=CC=CC1=C2 [CS-8],"L-group (Probes (FI(BW) >200) with rapid efflux were observed to have a RR of <5%, and thus were classified into L-group)",–
COC1=C2C=CC(C)=[N+]2[B-](F)(F)n2c(C)ccc21 [CS-11],"L-group (Probes (FI(BW) >200) with rapid efflux were observed to have a RR of <5%, and thus were classified into L-group)",–
F[B-]1(F)n2cccc2C(N2CCOCCOCCOCC2)=C2C=CC=[N+]21 [CS-13],"L-group (Probes (FI(BW) >200) with rapid efflux were observed to have a RR of <5%, and thus were classified into L-group)",–
F[B-]1(F)n2cccc2C(N2CCOCCOCCOCCOCC2)=C2C=CC=[N+]21 [CS-14],N-group (Probes in which BW images having FI(BW) ≤200 were classified as N-group),–
CC1=[N+]2C(=C(N3CCNCC3)c3ccc(C)n3[B-]2(F)F)C=C1 [CS-42],"L-group (Probes (FI(BW) >200) with rapid efflux were observed to have a RR of <5%, and thus were classified into L-group)",–
CCOC(=O)CCNC1=C2C=CC(CC)=[N+]2[B-](F)(F)n2c(CC)ccc21 [CS-56],"L-group (Probes (FI(BW) >200) with rapid efflux were observed to have a RR of <5%, and thus were classified into L-group)",–
CC(C)(C)NC1=C2C=CC=[N+]2[B-](F)(F)n2cccc21 [CS-101],"L-group (Probes (FI(BW) >200) with rapid efflux were observed to have a RR of <5%, and thus were classified into L-group)",–
